The values below come from patent US10709745B2, “Tropic cell based virotherapy for the treatment of cancer” (priority 2013, dated 2020).

Experiment [1] relates to HB1.F3-CD. The experiment in a line: TMZ IC50 with simultaneous XRT. It is filed as cell-based. To be noted: Homo sapiens; treated with XRT (2 Gy) simultaneously. The protocol: For all studies, the cells and mice received XRT in accordance with the University of Chicago's radiation safety guidelines and protocols. All cells received a single dose of 2 Gy XRT. For animal studies, 10 Gy fractioned dose radiotherapy (2 Gy for 5 consecutive days) was used. The animals were irradiated with a lead cover shielding their entire body, with only their heads exposed. […] For in vivo studies, the mice received 2.5, 5, 10, or 30 mg/kg TMZ via intraperitoneal injection.
NSCs have an inherent pathotropism toward glioma, which is critical for their utility as cell carriers. Therefore, it is critical that such intrinsic molecular properties and phenotypes of NSCs are maintained during radio-chemotherapy (XRT-TMZ). […] Oct4, a marker of self-renewal for undifferentiated cells, was expressed in 87.6±1.1% of the loaded NSCs. […] The percentage of Oct4 positive cells decreased to 81±2% (*, p<0.05), whereas the MFI was not reduced. […] Because of the high priority of safety when working with the undifferentiated v-myc immortalized HB1.F3-CD stem cell line (Kim et al. 2008), an in vivo safety monitoring experiment was performed to test the effect of XRT-TMZ on loaded HB1.F3-CD cellular transformation. CRAd-S-pk7-loaded NSCs were implanted in the brains of nude mice with no tumor burden. […]

In experiment [2] the test system is GBM43 glioma xenografts. The experiment in a line: Intracranial GBM43 xenograft: TMZ, XRT and CRAd-S-pk7-loaded NSCs. The format is in vivo, nude mice. The protocol: FIGS. 43A, 43B and 43C illustrate the in vivo efficacy of CRAd-Survivin-pk7 (CRAd-S-pk7)-loaded NSCs and XRT-TMZ treatment against human-derived glioma xenografts according to one embodiment. Intracranial GBM43 (3.5×10^5 cells per animal) was established, and the animals were treated for 5 consecutive days beginning on day 6 after tumor cell implantation. (FIG. 43A): Survival of animals treated with escalating doses of intraperitoneally administered TMZ (0, 5, 10, or 30 mg/kg). (FIG. 43B): Survival of animals treated with XRT (2 Gy) or a combination of XRT (2 Gy) and TMZ (2.5, 5, 10, or 30 mg/kg). (FIG. 43C): Survival of animals treated with the optimized dose of 2 Gy XRT and 5 mg/kg TMZ in addition to 5×10^5 or 3×10^6 NSCs loaded with 50 infectious units of CRAd-S-pk7. […] Abbreviations: ND, not determined; ns, no significance; NSC, neural stem cell; TMZ, temozolomide; XRT, radiation therapy.
FIGS. 45A and 45B illustrate the scheduling of CRAd-Survivin-pk7 (CRAd-S-pk7)-loaded NSC administration in vivo according to one embodiment. (FIG. 45A): Survival of animals treated with both therapeutic scheduling protocols. […] For each treatment group, five images were taken using the […]20 objective, and the number of positive cells was quantified per field of view (right). *, p<0.05; **, p<0.01; ***, p<0.001. […]

With `Cn1nnc2c(C(N)=O)ncn2c1=O` [TMZ, temozolomide], the concentration for half-maximal inhibition (IC50) (usually the concentration needed to halve the response being measured) in experiment [1] turned out to be 15 µM. Besides, the “increase in survival vs XRT-treated animals” value in experiment [2] (TMZ 5 mg/kg plus XRT 2 Gy ×5) was determined as 7 days. Also, the median survival in experiment [2] (TMZ 5 mg/kg plus XRT 2 Gy ×5 (FIG. 43B)) worked out at 31 days.
